According to ChEMBL document CHEMBL4229455, “Synthesis and anticancer activity of novel bisindolylhydroxymaleimide derivatives with potent GSK-3 kinase inhibition” (Bioorg Med Chem, 2018):
pIC50: −log10 of the molar value.

Tests used:
HOP-62 = test: Cytotoxicity against human HOP62 cells assessed as cell growth at 10 uM after 48 hrs by SRB assay relative to control; format: functional; conditions: HOP-62, 48 h, read-out: Activity
TK-10 = test: Cytotoxicity against human TK10 cells assessed as cell growth at 10 uM after 48 hrs by SRB assay relative to control; format: functional; conditions: TK-10, 48 h, read-out: Activity
A549 = test: Cytotoxicity against human A549 cells assessed as cell growth at 10 uM after 48 hrs by SRB assay relative to control; format: functional; conditions: A549, 48 h, read-out: Activity
SF-268 = test: Cytotoxicity against human SF268 cells assessed as cell growth at 10 uM after 48 hrs by SRB assay relative to control; format: functional; conditions: SF-268, 48 h, read-out: Activity
[1] = molecular target: Dual specificity tyrosine-phosphorylation-regulated kinase 1A (Rattus norvegicus, UniProt Q63470); test: Inhibition of recombinant rat DYRK1A kinase domain expressed in bacteria using KKISGRLSPIMTEQ as substrate in presence of [gamma-33P]ATP
M14 = test: Cytotoxicity against human M14 cells assessed as cell growth at 10 uM after 48 hrs by SRB assay relative to control; format: functional; conditions: M14, 48 h, read-out: Activity
OVCAR-4 = test: Cytotoxicity against human OVCAR4 cells assessed as cell growth at 10 uM after 48 hrs by SRB assay relative to control; format: functional; conditions: OVCAR-4, 48 h, read-out: Activity
NCI-H226 = test: Cytotoxicity against human NCI-H226 cells assessed as cell growth at 10 uM after 48 hrs by SRB assay relative to control; format: functional; conditions: NCI-H226, 48 h, read-out: Activity
[2] = molecular target: Dual specificity tyrosine-phosphorylation-regulated kinase 1A (Rattus norvegicus) (UniProt Q63470); test: Inhibition of recombinant rat DYRK1A kinase domain expressed in bacteria assessed as residual activity at 10 uM using KKISGRLSPIMTEQ as substrate in presence of [gamma-33P]ATP
HL-60(TB) = test: Cytotoxicity against human HL-60(TB) cells assessed as cell growth at 10 uM after 48 hrs by SRB assay relative to control; format: functional; conditions: HL-60, 48 h, read-out: Activity
OVCAR-5 = test: Cytotoxicity against human OVCAR5 cells assessed as cell growth at 10 uM after 48 hrs by SRB assay relative to control; format: functional; conditions: OVCAR-5, 48 h, read-out: Activity
RPMI-8226 = test: Cytotoxicity against human RPMI8226 cells assessed as cell growth at 10 uM after 48 hrs by SRB assay relative to control; format: functional; conditions: RPMI-8226, 48 h, read-out: Activity
U-251 = test: Cytotoxicity against human U251 cells assessed as cell growth at 10 uM after 48 hrs by SRB assay relative to control; format: functional; conditions: U-251, 48 h, read-out: Activity
[3] = Inhibition of domestic porcine brain full length […] using RRKHAAIGSpAYSITA as substrate in presence of [gamma-33P]ATP; design: species or system Sus scrofa domesticus
NCI-H522 = test: Cytotoxicity against human NCI-H522 cells assessed as cell growth at 10 uM after 48 hrs by SRB assay relative to control; format: functional; conditions: NCI-H522, 48 h, read-out: Activity
SR = test: Cytotoxicity against human SR cells assessed as cell growth at 10 uM after 48 hrs by SRB assay relative to control; format: functional; conditions: read-out: Activity
CAKI-1 = test: Cytotoxicity against human Caki1 cells assessed as cell growth at 10 uM after 48 hrs by SRB assay relative to control; format: functional; conditions: CAKI-1, 48 h, read-out: Activity
A498 = test: Cytotoxicity against human A498 cells assessed as cell growth at 10 uM after 48 hrs by SRB assay relative to control; format: functional; conditions: A498, 48 h, read-out: Activity
CCRF-CEM = test: Cytotoxicity against human CCRF-CEM cells assessed as cell growth at 10 uM after 48 hrs by SRB assay relative to control; format: functional; conditions: read-out: Activity
COLO 205 = test: Cytotoxicity against human COLO205 cells assessed as cell growth at 10 uM after 48 hrs by SRB assay relative to control; format: functional; conditions: COLO 205, 48 h, read-out: Activity
[4] = molecular target: CDK9/cyclin T1 (Homo sapiens) (UniProt O60563+P50750); test: Inhibition of recombinant full length human CDK9/cyclin T expressed in baculovirus infected Sf9 insect cells assessed as residual activity at 10 uM using YSPTSPSYSPTSPSYSPTSPSKKKK as substrate in presence of [gamma-33P]ATP
LOX IMVI = test: Cytotoxicity against human LOXIMVI cells assessed as cell growth at 10 uM after 48 hrs by SRB assay relative to control; format: functional; conditions: read-out: Activity
K562 = test: Cytotoxicity against human K562 cells assessed as cell growth at 10 uM after 48 hrs by SRB assay relative to control; format: functional; conditions: K562, 48 h, read-out: Activity
UACC-257 = test: Cytotoxicity against human UACC257 cells assessed as cell growth at 10 uM after 48 hrs by SRB assay relative to control; format: functional; conditions: UACC-257, 48 h, read-out: Activity
NCI-H322M = test: Cytotoxicity against human NCI-H322M cells assessed as cell growth at 10 uM after 48 hrs by SRB assay relative to control; format: functional; conditions: read-out: Activity
[5] = molecular target: Receptor-interacting serine/threonine-protein kinase 3 (Homo sapiens, UniProt Q9Y572); test: Inhibition of recombinant full length human RIPK3 expressed in baculovirus infected Sf9 insect cells assessed as residual activity at 10 uM using MBP as substrate in presence of [gamma-33P]ATP
Receptor-interacting serine/threonine-protein kinase 3, sequence (Q9Y572 whole entry, looked up): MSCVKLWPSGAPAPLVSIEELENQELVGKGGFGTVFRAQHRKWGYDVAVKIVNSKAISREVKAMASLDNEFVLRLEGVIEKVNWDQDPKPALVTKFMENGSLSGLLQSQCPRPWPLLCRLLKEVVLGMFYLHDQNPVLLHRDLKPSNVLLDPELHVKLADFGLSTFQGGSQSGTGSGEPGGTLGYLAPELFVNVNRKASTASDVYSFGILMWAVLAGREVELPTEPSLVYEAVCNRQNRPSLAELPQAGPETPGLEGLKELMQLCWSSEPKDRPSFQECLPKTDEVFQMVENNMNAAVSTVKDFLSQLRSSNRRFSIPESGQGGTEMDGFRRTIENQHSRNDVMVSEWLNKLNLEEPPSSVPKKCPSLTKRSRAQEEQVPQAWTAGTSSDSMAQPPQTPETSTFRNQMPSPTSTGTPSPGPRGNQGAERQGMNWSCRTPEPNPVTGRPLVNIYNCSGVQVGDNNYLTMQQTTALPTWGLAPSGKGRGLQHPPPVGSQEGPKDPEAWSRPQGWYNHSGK

HCT-116 = test: Cytotoxicity against human HCT116 cells assessed as cell growth at 10 uM after 48 hrs by SRB assay relative to control; format: functional; conditions: HCT-116, 48 h, read-out: Activity
Aurora kinase B = Aurora kinase B (Homo sapiens, UniProt Q96GD4); test: Inhibition of recombinant full length human aurora B expressed in baculovirus infected Sf9 insect cells using MBP as substrate in presence of [gamma-33P]ATP
Aurora kinase B, sequence (Q96GD4 whole entry): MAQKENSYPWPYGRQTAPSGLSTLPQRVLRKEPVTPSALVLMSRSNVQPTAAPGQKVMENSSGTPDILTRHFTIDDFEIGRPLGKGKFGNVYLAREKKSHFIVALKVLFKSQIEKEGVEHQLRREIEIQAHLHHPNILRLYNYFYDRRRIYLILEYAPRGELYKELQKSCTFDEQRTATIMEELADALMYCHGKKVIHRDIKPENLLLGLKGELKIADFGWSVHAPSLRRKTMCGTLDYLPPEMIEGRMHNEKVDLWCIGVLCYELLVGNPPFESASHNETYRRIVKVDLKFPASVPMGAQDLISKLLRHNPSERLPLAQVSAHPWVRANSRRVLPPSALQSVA

HOP-92 = test: Cytotoxicity against human HOP92 cells assessed as cell growth at 10 uM after 48 hrs by SRB assay relative to control; format: functional; conditions: HOP-92, 48 h, read-out: Activity
SN12C = test: Cytotoxicity against human SN12C cells assessed as cell growth at 10 uM after 48 hrs by SRB assay relative to control; format: functional; conditions: read-out: Activity
DU-145 = test: Cytotoxicity against human DU145 cells assessed as cell growth at 10 uM after 48 hrs by SRB assay relative to control; format: functional; conditions: DU-145, 48 h, read-out: Activity
MDA-MB-435 = test: Cytotoxicity against human MDA-MB-435 cells assessed as cell growth at 10 uM after 48 hrs by SRB assay relative to control; format: functional; conditions: MDA-MB-435, 48 h, read-out: Activity

Cn1cc(C2=C(c3cn(CCCCCC(=O)O)c4ccccc34)C(=O)N(O)C2=O)c2ccccc21
growth at 10 µM (HOP-62): 92% | growth at 10 µM (TK-10): 107% | growth at 10 µM (A549): 94.6% | growth at 10 µM (SF-268): 99.5% | pIC50 [1]: 6.00 | growth at 10 µM (M14): 103% | growth at 10 µM (OVCAR-4): 94.5% | growth at 10 µM (NCI-H226): 91.3% | Activity [2]: 22% | growth at 10 µM (HL-60(TB)): 103% | growth at 10 µM (OVCAR-5): 96.3% | growth at 10 µM (RPMI-8226): 96.8% | growth at 10 µM (U-251): 102% | pIC50 [3]: < 5.00 | growth at 10 µM (NCI-H522): 88.3% | growth at 10 µM (SR): 89.6% | growth at 10 µM (CAKI-1): 86.8% | growth at 10 µM (A498): 91.9% | growth at 10 µM (CCRF-CEM): 84.4% | growth at 10 µM (COLO 205): 109% | Activity [4]: 15% | growth at 10 µM (LOX IMVI): 80% | growth at 10 µM (K562): 103% | growth at 10 µM (UACC-257): 102% | growth at 10 µM (NCI-H322M): 99.8% | Activity [5]: 106% | growth at 10 µM (HCT-116): 98.4% | pIC50 (Aurora kinase B): < 5.00 | growth at 10 µM (HOP-92): 71.8% | growth at 10 µM (SN12C): 95.2% | growth at 10 µM (DU-145): 109% | growth at 10 µM (MDA-MB-435): 102%

Cn1cc(C2=C(c3cn(C)c4ncccc34)C(=O)NC2=O)c2ccccc21
growth at 10 µM (HOP-62): 21 to 40.6% | growth at 10 µM (TK-10): 26.3 to 33% | growth at 10 µM (A549): 21 to 28.8% | growth at 10 µM (SF-268): 27 to 50.2% | pIC50 [1]: < 5.00 | growth at 10 µM (M14): 7 to 17.5% | growth at 10 µM (OVCAR-4): 34 to 59% | Activity [2]: 30% | growth at 10 µM (HL-60(TB)): 3.55 to 9% | growth at 10 µM (OVCAR-5): 13 to 54.6% | growth at 10 µM (RPMI-8226): 45.4% | growth at 10 µM (U-251): 27% | pIC50 [3]: < 5.00 | growth at 10 µM (NCI-H522): 14.3 to 32% | growth at 10 µM (SR): 7 to 12.1% | growth at 10 µM (CAKI-1): 35% | growth at 10 µM (CCRF-CEM): 6.61 to 9% | growth at 10 µM (COLO 205): -63% | Activity [4]: -10% | growth at 10 µM (LOX IMVI): 16 to 41% | growth at 10 µM (K562): 16 to 19.9% | growth at 10 µM (UACC-257): 35 to 84.8% | Activity [5]: 79% | growth at 10 µM (HCT-116): 15 to 21.9% | pIC50 (Aurora kinase B): < 5.00 | growth at 10 µM (HOP-92): 12% | growth at 10 µM (SN12C): 4 to 30.7% | growth at 10 µM (DU-145): 36 to 63.2% | growth at 10 µM (MDA-MB-435): 12.9 to 14%

O=C1C2=C(C(=O)N1O)c1cn(c3ccccc13)CCCCCCn1cc2c2ccccc21
growth at 10 µM (HOP-62): 107% | growth at 10 µM (TK-10): 105% | growth at 10 µM (A549): 108% | growth at 10 µM (SF-268): 105% | pIC50 [1]: < 5.00 | growth at 10 µM (M14): 102% | growth at 10 µM (OVCAR-4): 113% | growth at 10 µM (NCI-H226): 101% | Activity [2]: 107% | growth at 10 µM (HL-60(TB)): 105% | growth at 10 µM (OVCAR-5): 98.2% | growth at 10 µM (RPMI-8226): 92.9% | growth at 10 µM (U-251): 106% | pIC50 [3]: < 5.00 | growth at 10 µM (NCI-H522): 108% | growth at 10 µM (SR): 91.9% | growth at 10 µM (CAKI-1): 95.7% | growth at 10 µM (A498): 88.3% | growth at 10 µM (CCRF-CEM): 99.4% | growth at 10 µM (COLO 205): 110% | Activity [4]: 87% | growth at 10 µM (LOX IMVI): 79.3% | growth at 10 µM (K562): 109% | growth at 10 µM (UACC-257): 106% | growth at 10 µM (NCI-H322M): 108% | Activity [5]: 108% | growth at 10 µM (HCT-116): 115% | pIC50 (Aurora kinase B): < 5.00 | growth at 10 µM (HOP-92): 79.6% | growth at 10 µM (SN12C): 106% | growth at 10 µM (DU-145): 108% | growth at 10 µM (MDA-MB-435): 111%
